Source: US20050085546A1, “Method of inducing differentiation of dendritic cells” (Council of Scientific & Industrial Research, priority 2003, published 2005)

Legend:
BM leukocyte precursors [1] = assay: Viability of stimulated BM leukocyte precursor cultures; assay type: cell-based, BALB/c mouse; design: Viability, % of Viable cells: reference not given here
Protocol: (§1) The fine suspension obtained above was transferred into a 50 ml sterile centrifuge tube and centrifuged for 10 minutes at 1200 rpm. […] The pellets were washed using HBSS wash buffer and then centrifuged again for 10 minutes at 1200 rpm. This process was repeated for one more time. […] This suspension was then finally passed through a MACS (Magnetic Activated Cell Sorting) column to get essentially and predominately leukocyte precursors.

BM leukocyte precursors [2] = assay: Differentiation of dendritic cells from bone marrow leukocyte precursors; cell surface marker expression by flow cytometry; assay type: cell-based, BALB/c mouse; conditions: for differentiation of dendritic cells (in words): from BM precursors
Protocol: Cells were stained for the surface levels of indicated markers. Plates A-D represent surface levels of CD80, CD54, CD11c and H-2D (MHC class 1), respectively. […] The Green line represents staining of stimulated cells while the black line depicts staining of unstimulated cells.
as §1
In order to evaluate the upregulation of various cell surface markers associated with Dendritic cells, flow cytometry on the cells stimulated with GM-CSF or the compound was carried out using fluorescent labeled antibodies to various molecules (CD11c, I-A^d, CD80, CD86, H2-D^d, CD54, CD40).
The hind limbs of the mouse were removed carefully and placed in a Petri dish with HBSS (Hanks Balanced Saline Solution) wash buffer. The tibias and femurs were cleared of all surrounding and attached tissues. This was followed by chipping the ends of bones. The bone marrow was flushed out by injecting HBSS solution into the bone with the help of a hypodermal syringe (No. 26 gauge). The bone marrow was finally made into a fine suspension by syringing in and out of the fluid several times using an 18 gauge syringe needle.

[3] = test system: osteoclast precursors (murine bone marrow cells, M-CSF + RANKL); assay: In vitro osteoclastogenesis assay (TRAP staining); assay type: cell-based, Balb/c mice; conditions: M-CSF + RANKL + compound 5.0 μg/ml, 6 days
[4] = test system: osteoclast precursors (murine bone marrow cells, M-CSF + RANKL); assay: In vitro osteoclastogenesis assay (TRAP staining); assay type: cell-based, Balb/c mice; conditions: for Number of TRAP-positive multinuclear cells/well of 96 well plate (Mean ± SEM) / % inhibition of osteoclast formation: 6 days
Text: Culture of murine bone marrow cells in the presence of M-CSF and RANKL induces the formation of osteoclasts, which were detected as TRAP-positive cells. […] Values given are the mean±SD of five separate experiments.
For in vitro osteoclastogenesis bone marrow cells were isolated from 5- to 8-wk-old Balb/c mice. Mice were sacrificed by cervical dislocation and femora and tibiae were aseptically removed and dissected free of adherent soft tissues. The bone ends were cut, and the marrow cavity was flushed out with medium MEM from one end of the bone using a sterile 21-gauge needle. The bone marrow suspension was carefully agitated with a plastic Pasteur pipette to obtain a single-cell suspension. The cells were washed twice and resuspended (10^6 cells/ml) in aMEM containing 10% FBS. […] After 24 h, nonadherent cells were harvested and layered on a Ficoll-Hypaque gradient. Cells at the gradient interface were collected, washed and resuspended (5×10^5/ml) in AMEM containing 10% FBS. In this study, we called these stromal cell-free, M-CSF-dependent, nonadherent cells as osteoclast precursors. These osteoclast precursors were added to 96-well plates (100 μl/well) containing plastic coverslips. Each well received further 100 μl of medium containing M-CSF (30 ng/ml), RANKL (30 ng/ml) without or with various concentrations of purified compound. Cultures were fed every 2-3 days and after incubation for 6 days osteoclast formation was evaluated by tartrate-resistant acid phosphatase (TRAP) staining. The number of TRAP-positive multinucleated cells (MNCs) containing 3 or more nuclei was scored.
TRAP is preferentially expressed at high levels in osteoclast and is considered, especially in the mouse, to be an osteoclast marker. Cytochemical staining for TRAP is widely used for identifying the osteoclasts in vivo and in vitro. It is claimed to be specific for osteoclasts in bone. After incubation, cells on cover slips were washed in PBS, fixed in 10% formalin for 10 min and stained for acid phosphatase in the presence of 0.05 M sodium tartrate. The substrate used was napthol AS-BI phosphate. Only those cells that were strongly TRAP-positive (dark red) counted by light microscopy.

[5] = Table A, 15 ng/ml GM-CSF or 50 micro gram per ml synthetic compound, 48 h
[6] = Table B, concentration not given
[7] = M-CSF + RANKL + compound 0.5 μg/ml
[8] = M-CSF + RANKL + compound 1.5 μg/ml
[9] = M-CSF + RANKL + compound 3.0 μg/ml
[10] = M-CSF + RANKL + compound 5.0 μg/ml

With “GM-CSF: the growth factor that is conventionally used to generate DCs in vitro” the “Viability, % of Viable cells” value (BM leukocyte precursors [1]; [5]) was 180%, the “Viability, % of Viable cells” value (BM leukocyte precursors [1]; [6]) was 180% and the “Fold increase in Relative MFI over unstimulated control, CD11c” value (BM leukocyte precursors [2]; [5]) was 5.0 fold. The “Fold increase in Relative MFI over unstimulated control, CD54” value (BM leukocyte precursors [2]; [5]) was 4.0 fold, the “Fold increase in Relative MFI over unstimulated control, CD80” value (BM leukocyte precursors [2]; [5]) was 3.3 fold and the “Fold increase in Relative MFI over unstimulated control, H-2D^d” value (BM leukocyte precursors [2]; [5]) was 2.0 fold. For the same compound, the “Fold increase in Relative MFI over unstimulated control, CD11c” value (BM leukocyte precursors [2]; [6]) was 5.0 fold, the “Fold increase in Relative MFI over unstimulated control, CD54” value (BM leukocyte precursors [2]; [6]) was 4.0 fold and the “Fold increase in Relative MFI over unstimulated control, CD80” value (BM leukocyte precursors [2]; [6]) was 3.3 fold. The “Fold increase in Relative MFI over unstimulated control, H-2D^d” value (BM leukocyte precursors [2]; [6]) was 2.0 fold.

`O=C(O)CC[C@H](NS(=O)(=O)O)C(=O)O` [compound 3, L-glutamyl-N-sulphonic acid] was tested, and the “Number of TRAP-positive multinuclear cells/well of 96 well plate (Mean ± SEM)” value [3] was 110.00 ± 6.72 cells/well, the “Number of TRAP-positive multinuclear cells/well of 96 well plate (Mean ± SEM)” value [4, 7] was 154.67 ± 8.43 cells/well and the “Number of TRAP-positive multinuclear cells/well of 96 well plate (Mean ± SEM)” value [4, 8] was 150.33 ± 8.82 cells/well. The “% inhibition of osteoclast formation” value [4, 9] was 23.23%, the “Number of TRAP-positive multinuclear cells/well of 96 well plate (Mean ± SEM)” value [4, 9] was 112.67 ± 8.63 cells/well and the “% inhibition of osteoclast formation” value [4, 10] was 25.08%. The “Viability, % of Viable cells” value (BM leukocyte precursors [1]; [6]) was 115%.

For `O=C([O-])CC[C@H](NS(=O)(=O)[O-])C(=O)[O-].O=C([O-])CC[C@H](NS(=O)(=O)[O-])C(=O)[O-].[Ca+2].[Ca+2].[Ca+2]` [compound 1, L-glutamyl-N-sulphonic acid, Ca salt], the “Number of TRAP-positive multinuclear cells/well of 96 well plate (Mean ± SEM)” value [3] was 2.83 ± 1.05 cells/well, the “% inhibition of osteoclast formation” value [4, 7] was 21.01% and the “Number of TRAP-positive multinuclear cells/well of 96 well plate (Mean ± SEM)” value [4, 7] was 109.67 ± 9.79 cells/well. For the same compound, the “% inhibition of osteoclast formation” value [4, 8] was 62.19%, the “Number of TRAP-positive multinuclear cells/well of 96 well plate (Mean ± SEM)” value [4, 8] was 52.17 ± 6.42 cells/well and the “% inhibition of osteoclast formation” value [4, 9] was 89.36%. For the same compound, the “Number of TRAP-positive multinuclear cells/well of 96 well plate (Mean ± SEM)” value [4, 9] was 14.67 ± 1.98 cells/well, the “% inhibition of osteoclast formation” value [4, 10] was 97.94% and the “inhibition in the number of osteoclast cells generated (in words)” value ([4]; increasing dose) was “dose dependent inhibition”. For the same compound, the “viability of the cultures at the end of the incubation period” value (BM leukocyte precursors [1]; 200 mM, 48 h) was “more than 99%”, the “viability of the cultures at the end of the incubation period” value (BM leukocyte precursors [1]; 50 micro gram per ml, 48 h) was greater than 99% and the “concentration of maximum up regulation of cell surface densities of CD11c, CD80, CD54” value (BM leukocyte precursors [2]; BM leukocyte precursors incubated with different concentrations) was 200 mM. For the same compound, the “differentiation of dendritic cells (in words)” value (BM leukocyte precursors [2]; listed as Compound I) was “Induces Differentiation of Dendritic Cells” and the “differentiation of dendritic cells (in words)” value (BM leukocyte precursors [2]; listed as the compound) was “induces the differentiation of DCs from BM precursors”.
